The source of these data is paper PMC11790763, “A Peptide Motif Covering Splice Site B in Neuroligin-1 Binds to Aβ and Acts as a Neprilysin Inhibitor” (Molecular Neurobiology, 2024).

In one test the target is T1, brain-derived NEP (Mus musculus, UniProt Q61391).
T1 construct: Clear supernatants were used as membrane-extracted fractions; from tissue; host or cells: adult mouse brain without cerebellum, Triton X-100-extracted membrane fraction
T1 sequence (Q61391 1-750): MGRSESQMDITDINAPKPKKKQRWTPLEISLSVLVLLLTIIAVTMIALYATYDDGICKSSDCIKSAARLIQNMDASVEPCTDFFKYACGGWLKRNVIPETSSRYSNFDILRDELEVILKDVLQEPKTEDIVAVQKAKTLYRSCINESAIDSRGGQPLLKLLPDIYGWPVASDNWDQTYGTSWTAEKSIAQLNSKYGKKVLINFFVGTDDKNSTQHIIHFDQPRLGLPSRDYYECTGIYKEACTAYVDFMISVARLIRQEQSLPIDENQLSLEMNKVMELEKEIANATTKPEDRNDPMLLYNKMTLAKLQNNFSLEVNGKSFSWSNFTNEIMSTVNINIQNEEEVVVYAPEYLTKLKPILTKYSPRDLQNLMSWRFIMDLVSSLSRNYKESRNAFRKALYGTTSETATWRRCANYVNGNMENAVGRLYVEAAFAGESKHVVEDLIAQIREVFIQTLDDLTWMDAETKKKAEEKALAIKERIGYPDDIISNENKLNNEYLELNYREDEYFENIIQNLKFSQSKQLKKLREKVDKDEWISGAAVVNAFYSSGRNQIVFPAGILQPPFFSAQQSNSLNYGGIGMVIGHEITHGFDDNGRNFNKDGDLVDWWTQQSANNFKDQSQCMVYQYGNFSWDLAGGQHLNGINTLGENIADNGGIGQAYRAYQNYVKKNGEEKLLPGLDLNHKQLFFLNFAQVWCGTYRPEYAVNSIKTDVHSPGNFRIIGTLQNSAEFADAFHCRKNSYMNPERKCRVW
Put plainly: Neprilysin activity in NEP-enriched brain membrane fraction of 5XFAD mice. The conditions noted are these: 5XFAD mice membrane fraction; neurolide 10 μM; n = 6. It counts as biochemical, mouse (5XFAD). The protocol:
To measure NEP activity in brain tissue, whole brains without cerebellum were dissected from adult mice (C57Bl/6j or 5XFAD) and homogenized with a Teflon-glass homogenizer in five volumes (w/v) of ice-cold lysis buffer containing PBS (pH 7.4), 0.25 M sucrose and protease inhibitor cocktail (Complete™, EDTA-free, Roche Diagnostics, Indianapolis, IN). The homogenates were centrifuged at 9000 × g for 15 min at 4 °C. The supernatants were further centrifuged at 20,000 × g at 4 °C for 20 min. The resulting pellets were solubilized in resuspension buffer containing PBS (pH 7.4) and 1% Triton X-100 for 1 h on ice and again centrifuged at 20,000 × g at 4 °C for 20 min. Clear supernatants were used as membrane-extracted fractions. Protein concentrations of Triton-extracted membrane fractions were determined using the Pierce BCA Protein Assay kit (Thermo Fisher Scientific). The standard assay mixture consisted of membrane fraction containing 40 μg total protein diluted in 40 μl of dilution buffer, 10 μl of testing compound (NL1, neurolide or vehicle), and 50 μl of NEP substrate (5-FAM/QXL; Anaspec) in a total volume of 100 μl. The reaction was initiated by adding substrate to the assay mixture. […] Fluorescence was measured at Ex/Em = 485/535 nm every 20 min for 2 h. The data were expressed as percentage of relative activity of neprilysin.

The next test concerns rats. Conditions: cited from earlier work.
Another test deals with 5XFAD mice. Description: GFAP immunoreactivity (astrogliosis) in cortex. It counts as in vivo, mouse. The conditions noted are these: 10 mg/kg s.c. three times a week for 10 weeks, neurolide n = 11 versus vehicle n = 13, p < 0.01. The protocol: (§1) At the age of 2 months, 5XFAD and WT mice were injected subcutaneously (s.c.) with either neurolide (10 mg/kg) or saline in a volume of 0.1 ml/10 g of body weight three times a week for 10 weeks.
After 10 weeks of treatment, mice were transcardially perfused with 0.1 M PBS, pH 7.4 under deep pentobarbital anesthesia (intraperitoneal, 200 mg/kg). The left brain hemispheres were postfixed in 4% paraformaldehyde in PBS. The brain hemispheres were further dehydrated in ethanol, cleared, embedded in paraffin blocks and serially sectioned into 7-μm coronal sections through the entire brain hemisphere. Parallel series of sections were collected, consisting of 12 equally spaced Sects. (400 μm apart). One of the series was stained with 1% Thioflavin-S for histological evaluation of Aβ plaque formation. Another series was used for immunohistochemical staining of GFAP + astrocytes as described previously. Extracellular Aβ plaque load was assessed in cortex, hippocampus, striatum, thalamus, and hypothalamus. GFAP-positive astrocytes were assessed in motor cortex. Serial super images of whole-brain sections were acquired using an Olympus BX-51 microscope equipped with the Visiopharm Integrator System software (Visiopharm) and analyzed using the ImageJ software package. […] The area, covered by Thioflavin-S or GFAP staining, was measured in selected regions.

Another test concerns 5XFAD and WT mice. Put plainly: Aβ plaque load, Thioflavin-S staining of brain sections. It counts as in vivo, mouse. The procedure: as §1
After 10 weeks of treatment, mice were transcardially perfused with 0.1 M PBS, pH 7.4 under deep pentobarbital anesthesia (intraperitoneal, 200 mg/kg). The left brain hemispheres were postfixed in 4% paraformaldehyde in PBS. The brain hemispheres were further dehydrated in ethanol, cleared, embedded in paraffin blocks and serially sectioned into 7-μm coronal sections through the entire brain hemisphere. Parallel series of sections were collected, consisting of 12 equally spaced Sects. (400 μm apart). One of the series was stained with 1% Thioflavin-S for histological evaluation of Aβ plaque formation. Another series was used for immunohistochemical staining of GFAP + astrocytes as described previously. Extracellular Aβ plaque load was assessed in cortex, hippocampus, striatum, thalamus, and hypothalamus. GFAP-positive astrocytes were assessed in motor cortex. Serial super images of whole-brain sections were acquired using an Olympus BX-51 microscope equipped with the Visiopharm Integrator System software (Visiopharm) and analyzed using the ImageJ software package. The pictures were converted to 8-bit images, and the area of interest was marked. The intensity threshold was fixed to fit Thioflavin-S or GFAP signal. The area, covered by Thioflavin-S or GFAP staining, was measured in selected regions.

The target of another test is T2, recombinant rat NL1 (Rattus norvegicus, UniProt Q62765).
T2 construct: the extracellular domain of NL1 was immobilized on a sensor chip; purchased R&D systems (Abingdon, UK)
Put plainly: Surface plasmon resonance binding to immobilized NL1. The conditions noted are these: SPR, KD for Aβ1-42 versus KD for NX1β. The protocol:
Binding analysis was performed on a Biacore 2000 SPR biosensor (GE Healthcare) at 25 °C using HBS-P (10 mM HEPES, pH 7.4, 150 mM NaCl, 0.005% [v/v] Surfactant P20) supplemented with 3 mM CaCl2 as a running buffer. Approximately 2000 Resonance Units (RU) of NL1 was immobilized on a CM4 sensor chip at a flow rate of 5 μl/min by amine coupling. Binding to serially diluted recombinant NX1β, used as a positive control, was performed as previously described. Aβ1-42 was dissolved in anhydrous DMSO to a stock concentration of 3.21 mM followed by serial dilution in running buffer. Peptide was injected into the chip, and binding experiments were performed at a flow rate of 20 μl/min, followed by regeneration of sensor chip with 10 μl of 15 mM NaOH and 150 mM NaCl. After subtraction of blank control, the binding curves were analyzed based on a nonlinear curve fitting using a 1:1 Langmuir binding model and the software package BIAevaluation 4 (GE Healthcare). The apparent equilibrium constant (KD) was calculated as kd/ka, in which ka and kd are the apparent association and dissociation constants, respectively.
A general note: In SPR one partner is held on a chip, and binding of the other changes the refractive index at the surface.

Where [1] appears, read: 5XFAD mice, 10 mg/kg s.c. three times a week for 10 weeks, neurolide n = 11 versus saline n = 13.

Bridges are numbered along the chain shown (N, C = ends). Roman numbers before positions name the chains, in order. Where no end group is shown, it is not given here.

In the case of “I: SEGNRWSNSTKGLFQRAKK-NH2 / II: SEGNRWSNSTKGLFQRAK / III: SEGNRWSNSTKGLFQRA / IV: SEGNRWSNSTKGLFQRA (amide I:18-IV:C, I:19-II:C, II:18-III:C; C-terminus assumed) [neurolide]”, at brain-derived NEP, the “NEP activity compared to untreated 5XFAD control” value is reported as “significant decrease”. In addition, in the test on rats, the “spatial memory deficits induced by NMDAR-antagonist MK801” value is reported as “counteracted spatial memory deficits”. Moreover, the “spatial learning, social behavior, and locomotor activity” value in the test with rats (healthy rats) was “had no effect”. Also, the “area of GFAP-immunoreactivity (gliosis) in the cortex” value in the test on 5XFAD mice is on record as “significant increase”. In the test on 5XFAD and WT mice (setting [1]), the “average size of thioflavin-S-positive plaques in the cortex” value is “significant increase” and the “fractional area of thioflavin-S-positive plaques in the cortex” value was “significant increase”. Moreover, the “plaque area or plaque size in other brain regions” value in the test on 5XFAD and WT mice (5XFAD mice, hippocampus, striatum, thalamus, hypothalamus, versus saline) was “no significant difference”. Further, the “plaques in WT brains” value in the test with 5XFAD and WT mice (WT mice, 10 mg/kg s.c. three times a week for 10 weeks) is “no plaques”.

B1: NL1: recombinant rat neuroligin-1, soluble ectodomain (R&D systems) (protein, UniProt Q62765 46-697, looked up)
extracellular domain: QKLDDVDPLVTTNFGKIRGIKKELNNEILGPVIQFLGVPYAAPPTGEHRFQPPEPPSPWSDIRNATQFAPVCPQNIIDGRLPEVMLPVWFTNNLDVVSSYVQDQSEDCLYLNIYVPTEDVKRISKECARKPGKKICRKGDIRDSGGPKPVMVYIHGGSYMEGTGNLYDGSVLASYGNVIVITVNYRLGVLGFLSTGDQAAKGNYGLLDLIQALRWTSENIGFFGGDPLRITVFGSGAGGSCVNLLTLSHYSEGNRWSNSTKGLFQRAIAQSGTALSSWAVSFQPAKYARILATKVGCNVSDTVELVECLQKKPYKELVDQDVQPARYHIAFGPVIDGDVIPDDPQILMEQGEFLNYDIMLGVNQGEGLKFVENIVDSDDGVSASDFDFAVSNFVDNLYGYPEGKDVLRETIKFMYTDWADRHNPETRRKTLLALFTDHQWVAPAVATADLHSNFGSPTYFYAFYHHCQTDQVPAWADAAHGDEVPYVLGIPMIGPTELFPCNFSKNDVMLSAVVMTYWTNFAKTGDPNQPVPQDTKFIHTKPNRFEEVAWTRYSQKDQLYLHIGLKPRVKEHYRANKVNLWLELVPHLHNLNDISQYTSTTTKVPSTDITLRPTRKNSTPVTSAFPTAKQDDPKQQPSPFSVDQRDYSTELS
modifications: extracellular domain
For the molecule B1, in the test with recombinant rat NL1, the “affinity constant KD of NL1 to Aβ, times lower compared to NX1β” value is “approximately 11 times”.
